In PubChem BioAssay AID1963863 (Molecular Pharmacology Branch, DTP, NCI, 2024):

System: 931267-113-T-J1-PDC KRAS spheroid with HUVEC/MSC, viability
Experiment: Anticancer human tumor 931267-113-T-J1-PDC patient-derived colon adenocarcinoma cell line growth inhibition [KRAS2]
Details: for IC50: curve of first compound; for viability, T/C: stronger effect = lower value
Source text: Multicellular complex tumor spheroid response to RAS pathway inhibitors in combination with a targeted agents in patient-derived cell lines with oncogenic KRAS variants from multiple cancer types
A high-throughput screen of multi-cell type tumor spheroids was designed to identify active combinations of targeted small molecules and KRAS pathway inhibitors. Complex spheroids include a stromal component modeled by human endothelial cells (HUVEC) and fibroblasts modeled by human mesenchymal stem cells (MSCs). The concentration ranges selected for each drug and investigational agent were based upon clinically achievable concentrations if the clinical Cmax of the agent was known.
Compounds. The drugs and investigational agents: BI-3406 (NSC825286), BAY-293 (NSC824723), batoprotafib (TNO155; NSC825523), sotorasib (AMG 510; NSC818433), MRTX1257 (NSC819558), elimusertib (BAY 1895344; NSC800525), molibresib (GSK525762; NSC774829), temuterkib (LY3214996; NSC803410), venetoclax (NSC766270), alisertib (NSC759677), olaparib (NSC753686), talazoparib (NSC767125), erdafitinib (NSC781556), ipatasertib (NSC767898), cabozantinib (NSC761068), nintedanib (NSC756659), abemaciclib (NSC768073), docetaxel (NSC628503), trametinib (NSC758246), and sapanisertib (NSC764658) were obtained from the National Cancer Institute (NCI) Developmental Therapeutics Program Chemical Repository. The FDA-approved anticancer drug set is available from the Developmental Therapeutics Program. […] The stock solutions were prepared in dimethyl sulfoxide (DMSO, Sigma-Aldrich, St. Louis, MO, cat. D2650) at 800-fold the tested concentration and stored at -70 degrees C prior to their use. All drugs and investigational agents were tested over a range starting from a high concentration at or near the clinical Cmax and decreasing in half-log increments. If the clinical Cmax for an agent had not been determined, the highest concentration tested was 10 microM.
Cell Culture. All cells were maintained in an incubator at 37 degrees C and 5% CO2 with 95% humidity. The PDC lines were cultured according to standard operating procedures established by the NCI PDMR (https://pdmr.cancer.gov/sops/default.htm). Briefly, all PDCs were thawed and cultured in Matrigel-coated flasks prepared with a working solution of 1X Ham's F-12 nutrient mix, without supplementation (Invitrogen, Waltham, MA, cat. 11765054), 100 U/mL penicillin-streptomycin (Invitrogen, cat. 15140122), and 2.5% Matrigel (Corning Inc., Corning, NY, cat. 354248) for the first three passages. All PDCs were cultured in complete DMEM/F-12 media containing advanced DMEM/F-12 (Invitrogen, cat. 12634028), 4.9% defined fetal bovine serum, heat inactivated (HyClone Laboratories Inc., Logan, UT, cat. SH30070.03HI), 389 ng/mL hydrocortisone (Sigma-Aldrich, cat. H4001), 9.7 ng/mL human EGF recombinant protein (Invitrogen, cat. PHG0313), 23.4 microg/mL adenine (Sigma-Aldrich, cat. A2786), 97.3 U/mL penicillin-streptomycin (Invitrogen, cat. 15140122), 1.9 mM L-glutamine (Invitrogen, cat. 25030081), and 9.7 microM Y-27632 dihydrochloride (Tocris Bioscience, Bristol, United Kingdom, cat. 1254). The PDCs were cultured in complete DMEM/F12 media without 9.7 microM Y-27632 dihydrochloride for at least two passages prior to the screen. The established cell line HOP-62 was cultured in RPMI 1640 medium, HEPES (Invitrogen, cat. 22400105) with 10% defined fetal bovine serum (HyClone Laboratories Inc., cat. SH30070.03) and 2 mM L-glutamine (Invitrogen, cat. 25030081). The pooled donor HUVEC were cultured in endothelial cell growth medium 2 (PromoCell, Heidelberg, Germany, cat. C-22011) and the hMSC were cultured in mesenchymal stem cell growth medium 2 (PromoCell, cat. C-28009). For all experiments, HUVEC and hMSC were used at passages </=5, while the malignant cell lines were used at passages </=15. […]
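Further: compound exposure lasted 7 days before the readout.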
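Wherever viability, T/C is given: 100% = DMSO vehicle control viability.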

For `COc1cc2nccc(Oc3ccc(NC(=O)C4(C(=O)Nc5ccc(F)cc5)CC4)cc3)c2cc1OC` + C=CC(=O)N1CCN(c2nc(=O)n(-c3c(C)ccnc3C(C)C)c3nc(-c4c(O)cccc4F)c(F)cc23)C(C)C1, the IC50 (second compound 0.1 µM) was > 10000 nM, the IC50 (second compound 0.316 µM) was 3110 nM and the IC50 (second compound 1 µM) was > 10000 nM. For the same compound, the IC50 (second compound 3.16 µM) was 2580 nM, the IC50 (second compound 10 µM) was 723 nM and the viability, T/C (second compound 0.1 µM, first compound 0.0316 µM) was 115%. The viability, T/C (second compound 0.1 µM, first compound 0.1 µM) was 96.3%, the viability, T/C (second compound 0.1 µM, first compound 0.316 µM) was 91.7% and the viability, T/C (second compound 0.1 µM, first compound 1 µM) was 104%. It also gave a viability, T/C (second compound 0.1 µM, first compound 3.16 µM) of 65.1%, a viability, T/C (second compound 0.1 µM, first compound 10 µM) of 69% and a viability, T/C (second compound 0.316 µM, first compound 0.0316 µM) of 105%. For the same compound, the viability, T/C (second compound 0.316 µM, first compound 0.1 µM) was 96.6%, the viability, T/C (second compound 0.316 µM, first compound 0.316 µM) was 97.1% and the viability, T/C (second compound 0.316 µM, first compound 1 µM) was 96.3%. It also gave a viability, T/C (second compound 0.316 µM, first compound 3.16 µM) of 49.3%, a viability, T/C (second compound 0.316 µM, first compound 10 µM) of 48.5% and a viability, T/C (second compound 1 µM, first compound 0.0316 µM) of 108%. It also gave a viability, T/C (second compound 1 µM, first compound 0.1 µM) of 115%, a viability, T/C (second compound 1 µM, first compound 0.316 µM) of 98.4% and a viability, T/C (second compound 1 µM, first compound 1 µM) of 109%. It also gave a viability, T/C (second compound 1 µM, first compound 3.16 µM) of 63.7%, a viability, T/C (second compound 1 µM, first compound 10 µM) of 57.2% and a viability, T/C (second compound 3.16 µM, first compound 0.0316 µM) of 106%. For the same compound, the viability, T/C (second compound 3.16 µM, first compound 0.1 µM) was 92.8%, the viability, T/C (second compound 3.16 µM, first compound 0.316 µM) was 98.2% and the viability, T/C (second compound 3.16 µM, first compound 1 µM) was 82.3%. The viability, T/C (second compound 3.16 µM, first compound 3.16 µM) was 43%, the viability, T/C (second compound 3.16 µM, first compound 10 µM) was 34.4% and the viability, T/C (second compound 10 µM, first compound 0.0316 µM) was 82.6%. For the same compound, the viability, T/C (second compound 10 µM, first compound 0.1 µM) was 80.6%, the viability, T/C (second compound 10 µM, first compound 0.316 µM) was 54.3% and the viability, T/C (second compound 10 µM, first compound 1 µM) was 58.1%. For the same compound, the viability, T/C (second compound 10 µM, first compound 3.16 µM) was 10.7% and the viability, T/C (second compound 10 µM, first compound 10 µM) was 18.5%.
